According to ChEMBL document CHEMBL3272213, “Synthesis and pharmacology of novel anxiolytic agents derived from 2-[(dialkylamino)methyl-4H-triazol-4-yl] benzophenones and related heterocyclic benzophenones” (1976):

Columns and labels:
Assay type in all cases: functional
Mus musculus [1] = experiment: Anxiolytic activity in ip dosed male albino CF-1 mouse assessed as inhibition of nicotine-induced death; conditions: Mus musculus, CF-1, ip; read-out: ED50
Mus musculus [2] = experiment: Anxiolytic activity in ip dosed male albino CF-1 mouse assessed as inhibition of nicotine-induced tonic extensor convulsions; conditions: Mus musculus, CF-1, ip; read-out: ED50
Mus musculus [3] = experiment: Anxiolytic activity in ip dosed male albino CF-1 mouse assessed as inhibition of pentylenetetrazole-induced clonic convulsions; conditions: CF-1, ip
Mus musculus [4] = experiment: Anxiolytic activity in ip dosed male albino CF-1 mouse assessed as decrease in dish reflex; conditions: Mus musculus, CF-1, ip; read-out: ED50
Mus musculus [5] = experiment: Anxiolytic activity in ip dosed male albino CF-1 mouse assessed as decrease in traction reflex; conditions: Mus musculus, CF-1, ip; read-out: ED50
Mus musculus [6] = experiment: Anxiolytic activity in ip dosed male albino CF-1 mouse assessed as inhibition of strychnine-induced lethality; conditions: CF-1, ip
Mus musculus [7] = experiment: Potentiation of ethanol-induced anxiolytic activity in ip dosed male albino CF-1 mouse; conditions: CF-1, ip
Mus musculus [8] = experiment: Anxiolytic activity in ip dosed male albino CF-1 mouse assessed as inhibition of electroshock-induced convulsions; conditions: CF-1, ip
Mus musculus [9] = experiment: Anxiolytic activity in ip dosed male albino CF-1 mouse assessed as inhibition of thiosemicarbazide -induced lethality; conditions: CF-1, ip

Structure (SMILES) | ED50 (Mus musculus [1]) | ED50 (Mus musculus [2]) | ED50 (Mus musculus [3]) | ED50 (Mus musculus [4]) | ED50 (Mus musculus [5]) | ED50 (Mus musculus [6]) | ED50 (Mus musculus [7]) | ED50 (Mus musculus [8]) | ED50 (Mus musculus [9])
CCN(CC)CC(=O)Nc1ccc(Cl)cc1C(=O)c1ccccc1 | 28 mg/kg | 23 mg/kg | 140 mg/kg | 100 mg/kg | > 200 mg/kg |  |  |  | 
Cc1nnc(CN(C)C)n1-c1ccc(Cl)cc1C(=O)c1ccccc1Cl | 0.14 mg/kg | 0.14 mg/kg | 0.28 mg/kg | 0.25 mg/kg | 3.2 mg/kg | 11 mg/kg | 0.63 mg/kg | 50 mg/kg | 0.02 mg/kg
CN(C)Cc1nnc(-c2ccncc2)n1-c1ccc(Cl)cc1C(=O)c1ccccc1Cl | 11 mg/kg | 11 mg/kg |  | 20 mg/kg | > 100 mg/kg | > 50 mg/kg |  | > 100 mg/kg | 4.4 mg/kg
Cc1nnc(CN(C)C)n1-c1ccccc1C(=O)c1ccccc1Cl | 5 mg/kg | 5 mg/kg | 7 mg/kg | 22 mg/kg | > 100 mg/kg | > 50 mg/kg | > 100 mg/kg | > 100 mg/kg | 3.6 mg/kg
Cc1nnc(CN(C)C)n1-c1ccc(Cl)cc1C(=O)c1ccccc1 | 0.5 mg/kg | 0.5 mg/kg | 1.1 mg/kg | 2.2 mg/kg | 5 mg/kg | 5 mg/kg | 1.1 mg/kg | 45 mg/kg | 0.3 mg/kg
Cc1nnc(CN2CCCC2)n1-c1ccc(Cl)cc1C(=O)c1ccccc1 | 0.4 mg/kg | 0.4 mg/kg | 2 mg/kg | 1.3 mg/kg | 4 mg/kg | 4 mg/kg | 1.8 mg/kg | 89 mg/kg | 2 mg/kg
Cc1nnc(CN2CCCC2)n1-c1ccc(Cl)cc1C(=O)c1ccccc1Cl | 1.8 mg/kg | 1.3 mg/kg | 4 mg/kg | 1 mg/kg | 18 mg/kg | 1 mg/kg | 6 mg/kg | > 100 mg/kg | 1.1 mg/kg
Cc1nnc(CN2CCCC2)n1-c1ccc(Cl)cc1Cc1ccccc1 | 36 mg/kg | 36 mg/kg | > 100 mg/kg | 40 mg/kg | > 100 mg/kg |  |  |  | 
Cc1nnc(CN2CCOCC2)n1-c1ccc(Cl)cc1C(=O)c1ccccc1 | 0.5 mg/kg | 0.45 mg/kg | 1.8 mg/kg | 1.8 mg/kg | 5 mg/kg | 6.3 mg/kg | 4.4 mg/kg | > 50 mg/kg | 0.8 mg/kg
CNCc1nnc(C)n1-c1ccc(Cl)cc1C(=O)c1ccccc1 | 0.1 mg/kg | 0.1 mg/kg | 1.1 mg/kg | 0.8 mg/kg | 2.5 mg/kg | 3.2 mg/kg | 2 mg/kg | 63 mg/kg | 0.3 mg/kg
CCNCc1nnc(C)n1-c1ccc(Cl)cc1C(=O)c1ccccc1 | 0.2 mg/kg | 0.2 mg/kg | 0.5 mg/kg | 1 mg/kg | 2.5 mg/kg | 45 mg/kg | 0.6 mg/kg | 45 mg/kg | 0.6 mg/kg
CN(C)Cc1nnc(C2CC2)n1-c1ccc(Cl)cc1C(=O)c1ccccc1Cl | 0.6 mg/kg | 0.6 mg/kg | 1 mg/kg | 1.1 mg/kg | 7.1 mg/kg | 5 mg/kg | 2.2 mg/kg | 79 mg/kg | 0.4 mg/kg
